Source: PubChem BioAssay AID1918958 (Molecular Pharmacology Branch, DTP, NCI, 2023)

System: NCI-H196 complex spheroid viability
Test: Anticancer human tumor NCI-H196 cell line growth inhibition [LSD1];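 note: spheroids exposed to agents for 7 days before readout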;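 for viability, T/C: 100% = DMSO vehicle control viability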
Details: for IC50: curve of first compound; for viability, T/C: stronger effect = lower value
Outline: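 Drug combinations with the LSD1 inhibitor iadademstat tested on tumor cells co-cultured as spheroids with endothelial cells and mesenchymal stem cells. Concentrations descended in half-log increments from clinical Cmax or 10 microM.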

[1] = second compound 0.1 µM, first compound 0.0316 µM
[2] = second compound 0.1 µM, first compound 0.1 µM
[3] = second compound 0.1 µM, first compound 0.316 µM
[4] = second compound 0.1 µM, first compound 1 µM
[5] = second compound 0.1 µM, first compound 3.16 µM
[6] = second compound 0.1 µM, first compound 10 µM
[7] = second compound 0.316 µM, first compound 0.0316 µM
[8] = second compound 0.316 µM, first compound 0.1 µM
[9] = second compound 0.316 µM, first compound 0.316 µM
[10] = second compound 0.316 µM, first compound 1 µM
[11] = second compound 0.316 µM, first compound 3.16 µM
[12] = second compound 0.316 µM, first compound 10 µM
[13] = second compound 1 µM, first compound 0.0316 µM
[14] = second compound 1 µM, first compound 0.1 µM
[15] = second compound 1 µM, first compound 0.316 µM
[16] = second compound 1 µM, first compound 1 µM
[17] = second compound 1 µM, first compound 3.16 µM
[18] = second compound 1 µM, first compound 10 µM
[19] = second compound 3.16 µM, first compound 0.0316 µM
[20] = second compound 3.16 µM, first compound 0.1 µM
[21] = second compound 3.16 µM, first compound 0.316 µM
[22] = second compound 3.16 µM, first compound 1 µM
[23] = second compound 3.16 µM, first compound 3.16 µM
[24] = second compound 3.16 µM, first compound 10 µM
[25] = second compound 10 µM, first compound 0.0316 µM
[26] = second compound 10 µM, first compound 0.1 µM
[27] = second compound 10 µM, first compound 0.316 µM
[28] = second compound 10 µM, first compound 1 µM
[29] = second compound 10 µM, first compound 3.16 µM
[30] = second compound 10 µM, first compound 10 µM

| Compound | IC50 (second compound 0.1 µM) [µM] | IC50 (second compound 0.316 µM) [µM] | IC50 (second compound 1 µM) [µM] | IC50 (second compound 3.16 µM) [µM] | IC50 (second compound 10 µM) [µM] | viability, T/C [1] [%] | viability, T/C [2] [%] | viability, T/C [3] [%] | viability, T/C [4] [%] | viability, T/C [7] [%] | viability, T/C [8] [%] | viability, T/C [9] [%] | viability, T/C [10] [%] | viability, T/C [13] [%] | viability, T/C [14] [%] | viability, T/C [15] [%] | viability, T/C [16] [%] | viability, T/C [19] [%] | viability, T/C [20] [%] | viability, T/C [21] [%] | also measured |
| --- | --- | --- | --- | --- | --- | --- | --- | --- | --- | --- | --- | --- | --- | --- | --- | --- | --- | --- | --- | --- | --- |
| CC(C)c1c(-c2ccccc2)nc2c(C#N)c[nH]n2c1=O + NC1CC1c1ccc(-c2cccc(O)c2)cc1 | > 10 | > 10 | > 10 | > 10 | > 10 | 87.2 | 96.8 | 88.4 | 83.5 | 92.7 | 102 | 98 | 89.4 | 96.7 | 95 | 91.1 | 96.7 | 101 | 88.5 | 95.3 | viability, T/C [5]: 93.1%; viability, T/C [6]: 90.1%; viability, T/C [11]: 94.6%; viability, T/C [12]: 88.2%; viability, T/C [17]: 104%; viability, T/C [18]: 79.8%; viability, T/C [22]: 96.2%; viability, T/C [23]: 91.6%; viability, T/C [24]: 94.1%; viability, T/C [25]: 103%; viability, T/C [26]: 92.6%; viability, T/C [27]: 93.1%; viability, T/C [28]: 88.4%; viability, T/C [29]: 86.3%; viability, T/C [30]: 88% |
| CC1COCCN1c1cc(-c2ccnn2C)c2ccnc(-c3ccn[nH]3)c2n1 (stereo not given) + NC1CC1c1ccc(-c2cccc(O)c2)cc1 | 0.368 | 0.176 | 0.0961 | 0.212 | 0.168 | 72.5 | 57.1 | 49.8 | 43.2 | 71.4 | 55.4 | 45.4 | 38.4 | 65.5 | 51 | 51.4 | 45.9 | 70.9 | 56.1 | 47.7 | viability, T/C (second compound 0.1 µM, first compound 0.00316 µM): 79.2%; viability, T/C (second compound 0.1 µM, first compound 0.01 µM): 74.4%; viability, T/C (second compound 0.316 µM, first compound 0.00316 µM): 72.4%; viability, T/C (second compound 0.316 µM, first compound 0.01 µM): 78.7%; viability, T/C (second compound 1 µM, first compound 0.00316 µM): 85.6%; viability, T/C (second compound 1 µM, first compound 0.01 µM): 87.6%; viability, T/C (second compound 3.16 µM, first compound 0.00316 µM): 86.6%; viability, T/C (second compound 3.16 µM, first compound 0.01 µM): 83.5%; viability, T/C [22]: 41.5%; viability, T/C (second compound 10 µM, first compound 0.00316 µM): 89.4%; viability, T/C (second compound 10 µM, first compound 0.01 µM): 81.2%; viability, T/C [25]: 79.3%; viability, T/C [26]: 55.2%; viability, T/C [27]: 43.5%; viability, T/C [28]: 40.9% |
| CC1COCCN1c1cc(C2(S(C)(=N)=O)CC2)nc(-c2ccnc3[nH]ccc23)n1 (stereo not given) + NC1CC1c1ccc(-c2cccc(O)c2)cc1 | > 10 | > 10 | > 10 | > 10 | > 10 | 97.7 | 88.3 | 92.2 | 89.1 | 97.3 | 95.8 | 88 | 89.6 | 98.2 | 93.1 | 108 | 89.2 | 103 | 96.8 | 93.9 | viability, T/C [5]: 73.9%; viability, T/C [6]: 63.6%; viability, T/C [11]: 77.1%; viability, T/C [12]: 64.5%; viability, T/C [17]: 67.7%; viability, T/C [18]: 62%; viability, T/C [22]: 85.6%; viability, T/C [23]: 70.2%; viability, T/C [24]: 61.5%; viability, T/C [25]: 94.8%; viability, T/C [26]: 102%; viability, T/C [27]: 93%; viability, T/C [28]: 91.6%; viability, T/C [29]: 71.3%; viability, T/C [30]: 64.3% |
